Molecules are shown by their SMILES.

The first data set relates to Human Heme Oxygenase-1 (HMOX-1). Put plainly: ELISA assay to measure human heme oxygenase-1 (HMOX-1) in HepG2 lysate. Type of data set: cell-based. The note with it: fold change of human HMOX1 protein level relative to DMSO control, HepG2. On the procedure:
Example 143. ELISA Assay to Measure Human Heme Oxygenase-1 (HMOX-1) in HepG2 lysate
Reagents and Technical Notes:
ELISA capture antibody, standard HO-1, detection antibody and streptavidin HRP were supplied in the DuoSet IC Human total HO-1 ELISA from R&D systems (DYC3776-2). The substrate cocktail was KPL LumiGLO reserve Chemiluminescent Substrate (54-71-00). PBS was Corning Cellgro Cell Culture (21-040-CV). 10×PBS+0.05% tween20 (PBST) was from KPL.
All incubations of the plate were at room temperature (20° C.) in a closed drawer.
The ELISA plate was processed manually. All loadings were with a multichannel pipet. Plates were emptied by shaking into the sink and tapping onto paper towels to remove any remaining reagent. Plate washing was accomplished by loading all wells with PBS+0.05% tween20 (PBST) using a squirt bottle, shaking the PBST out and tapping the plate onto paper towels.
Preparation of the ELISA Plate:
• 1. anti-HO-1 capture antibody was 1440 μg/ml after reconstitution in PBS. This antibody was diluted to 8 μg/ml in PBS and 50 μl per well was added to a 384 well greiner “lumitrac 200” plate. Incubated overnight. • 2. The plate was emptied and 100 μl PBS+1% BSA added to all wells. Incubated 90 minutes at room temperature. Preparation of HepG2 Lysate: • 1. Cells were cultured in a 96-well tissue culture plate washed with PBS and then the plate frozen at −70° C. overnight. Plates were allowed to warm to ice temperature in an ice bucket. 20 μl of PBS, 0.5% Triton X100, 1 mM EDTA with 1×HALT™ protease inhibitors was added to each well and the plates incubated on ice for 1 hour. • 2. The lysates were frozen at −20° C. overnight. Measurement of HMOX1 (“HO-1”) • 1. In a polypropylene 384 well plate, human HO-1 (after reconstitution in PBS+0.5% Triton+1 mM EDTA) was serially diluted from 20 ng/ml 2-fold in PBS+0.5% triton-X100, 1 mM EDTA to make a 12-point standard curve including a zero point. • 2. In a polypropylene 96 well plate, HepG2 lysate was diluted 1 to 20 in Diluent #4 from DUOSET kit in which the assay standard is also diluted. • 3. The PBS+1% BSA was emptied from the ELISA plate and 30 μl of all samples and standards were added (duplicates recommended). The plate was incubated 90 minutes. • 4. Emptied plate and washed 4 times with PBST. • 5. Diluted HO-1 detection antibody to 200 ng/ml in PBS+1% BSA and added 30 μl to all wells. Incubated 90 minutes. • 6. Emptied plate and washed 4 times with PBST. • 7. Added 30 μl streptavidin HRP at 1/200 in PBS+1% BSA (stock streptavidin concentration not specified) to all wells. Incubated 30 minutes. • 8. Emptied plate and washed 4 times with PBST. • 9. Diluted Lumiglo reserve reagent two parts buffer to one part lumiglo substrate. Added 30 μl to all wells. Incubated 5 minutes. • 10. Measured chemiluminescence on spectramax M5 using 150 ms integration.
Table 1 below lists EC50 and fold changes of human HMOX1 protein levels relative to DMSO control upon treatment with representative compounds.
In general terms: ELISA stands for enzyme-linked immunosorbent assay.
As for `COCCOc1ccc2nc(Nc3nc4cc(C(=O)O)ccc4n3C)oc2c1` [Example 55, 2-((6-(2-methoxyethoxy)benzo[d]oxazol-2-yl)amino)-1-methyl-1H-benzo[d]imidazole-5-carboxylic acid], the “Maximum Fold induction” value is recorded as 15 fold.

`COCCNC(=O)c1ccc2c(c1)nc(Nc1nc3cc(C)ccc3o1)n2C` [Example 65, N-(2-methoxyethyl)-1-methyl-2-((5-methylbenzo[d]oxazol-2-yl)amino)-1H-benzo[d]imidazole-5-carboxamide]: the “Maximum Fold induction” value is recorded as 15.42 fold.

The data set is the same for the next values; noted with them: human HMOX1 protein level in HepG2 lysate; * = average of 2 or more EC50 determinations; NA = Not Active; read-out: EC50.
The term EC50 denotes the concentration at which the effect is half-maximal. On to `Cn1c(Nc2nc3ccccc3o2)nc2cc(C(=O)O)ccc21` [Example 1h, 2-(benzo[d]oxazol-2-ylamino)-1-methyl-1H-benzo[d]imidazole-5-carboxylic acid], for which the EC50 was 4.4 µM.

Consider `COCCNC(=O)c1ccc2c(c1)nc(Nc1nc3ccccc3o1)n2C` [Example 1i, 2-(benzo[d]oxazol-2-ylamino)-N-(2-methoxyethyl)-1-methyl-1H-benzo[d]imidazole-5-carboxamide], for which the EC50 was 0.8 µM. For `COCCNC(=O)c1ccc2c(c1)nc(Nc1nc3ccc(OC(F)(F)F)cc3s1)n2C1CCOCC1` [Example 2e, N-(2-methoxyethyl)-1-(tetrahydro-2H-pyran-4-yl)-2-((6-(trifluoromethoxy)benzo[d]thiazol-2-yl)amino)-1H-benzo[d]imidazole-5-carboxamide], the EC50 was found to be 3.8 µM.

As for `CN1CCC(n2c(Nc3nc4ccc(OC(F)(F)F)cc4s3)nc3cc(C(=O)O)ccc32)CC1` [Example 3d, 1-(1-methylpiperidin-4-yl)-2-((6-(trifluoromethoxy)benzo[d]thiazol-2-yl)amino)-1H-benzo[d]imidazole-5-carboxylic acid], the EC50 was 9.2 µM.

With `COCCNC(=O)c1ccc2c(c1)nc(Nc1nc3ccc(OC(F)(F)F)cc3s1)n2C1CCN(C)CC1` [Example 3e, N-(2-methoxyethyl)-1-(1-methylpiperidin-4-yl)-2-((6-(trifluoromethoxy)benzo[d]thiazol-2-yl)amino)-1H-benzo[d]imidazole-5-carboxamide], the half-maximal effective concentration (EC50) worked out at 1.1 µM. On the same count and under the same terms, with `CN1CCC(n2c(Nc3nc4ccc(OC(F)(F)F)cc4s3)nc3cc(C(=O)O)ccc32)C1` (centres unmarked) [Example 4d, 1-(1-methylpyrrolidin-3-yl)-2-((6-(trifluoromethoxy)benzo[d]thiazol-2-yl)amino)-1H-benzo[d]imidazole-5-carboxylic acid] the figure was 4.7 µM; with `COCCNC(=O)c1ccc2c(c1)nc(Nc1nc3c(s1)COCC3)n2C` [Example 11, 2-((6,7-dihydro-4H-pyrano[4,3-d]thiazol-2-yl)amino)-N-(2-methoxyethyl)-1-methyl-1H-benzo[d]imidazole-5-carboxamide], 6.6 µM. With `COCCNC(=O)c1ccc2c(c1)nc(Nc1nc3ccccc3[nH]1)n2C` [Example 12, 2-((1H-benzo[d]imidazol-2-yl)amino)-N-(2-methoxyethyl)-1-methyl-1H-benzo[d]imidazole-5-carboxamide], the EC50 worked out at 4.5 µM.

Take `Cn1c(Nc2nc3cc(C(=O)O)ccc3n2C)nc2cc(OC(F)(F)F)ccc21` [Example 15, 1-methyl-2-((1-methyl-5-(trifluoromethoxy)-1H-benzo[d]imidazol-2-yl)amino)-1H-benzo[d]imidazole-5-carboxylic acid]: the EC50 stood at 5.3 µM.

For `CN(C)CCNC(=O)c1ccc2c(c1)nc(Nc1nc3ccccc3o1)n2C` [Example 21, 2-(benzo[d]oxazol-2-ylamino)-N-(2-(dimethylamino)ethyl)-1-methyl-1H-benzo[d]imidazole-5-carboxamide], the EC50 stood at 1.1 µM. As to `Cn1c(Nc2nc3ccc(OC(F)(F)F)cc3o2)nc2cc(C(=O)NCCS(C)(=O)=O)ccc21` [Example 54, 1-methyl-N-(2-(methylsulfonyl)ethyl)-2-((6-(trifluoromethoxy)benzo[d]oxazol-2-yl)amino)-1H-benzo[d]imidazole-5-carboxamide], the EC50 worked out at 3.2 µM.

With `COCCOc1ccc2nc(Nc3nc4cc(C(=O)O)ccc4n3C)oc2c1` [Example 55, 2-((6-(2-methoxyethoxy)benzo[d]oxazol-2-yl)amino)-1-methyl-1H-benzo[d]imidazole-5-carboxylic acid], the EC50 came out at 4.5 µM. As to `CC(C)c1ccc2nc(Nc3nc4cc(C(=O)O)ccc4n3C)oc2c1` [Example 59, 2-((6-isopropylbenzo[d]oxazol-2-yl)amino)-1-methyl-1H-benzo[d]imidazole-5-carboxylic acid], the EC50 is 3.3 µM.

For `COCCNC(=O)c1ccc2c(c1)nc(Nc1nc3cc(C)ccc3o1)n2C` [Example 65, N-(2-methoxyethyl)-1-methyl-2-((5-methylbenzo[d]oxazol-2-yl)amino)-1H-benzo[d]imidazole-5-carboxamide], the EC50 came out at 1.2 µM. Still for that read-out and setting: with `Cn1c(Nc2nc3cc(F)ccc3o2)nc2cc(C(=O)O)ccc21` [Example 66, 2-((5-fluorobenzo[d]oxazol-2-yl)amino)-1-methyl-1H-benzo[d]imidazole-5-carboxylic acid] the figure was 5.4 µM. Still for that read-out and setting: the value for `Cn1c(Nc2nc3ccc(F)cc3o2)nc2cc(C(=O)O)ccc21` [Example 68, 2-((6-fluorobenzo[d]oxazol-2-yl)amino)-1-methyl-1H-benzo[d]imidazole-5-carboxylic acid] was 2 µM; that for `Cn1c(Nc2nc3ccc(OC(F)(F)F)cc3o2)nc2cc(C(=O)O)c(F)cc21` [Example 70, 6-fluoro-1-methyl-2-((6-(trifluoromethoxy)benzo[d]oxazol-2-yl)amino)-1H-benzo[d]imidazole-5-carboxylic acid] was 3.2 µM. As to `CN(C)CCn1c(Nc2nc3ccc(OC(F)(F)F)cc3o2)nc2cc(C(=O)O)ccc21` [Example 74, 1-(2-(dimethylamino)ethyl)-2-((6-(trifluoromethoxy)benzo[d]oxazol-2-yl)amino)-1H-benzo[d]imidazole-5-carboxylic acid], the EC50 worked out at 3.6 µM. For `COCCNC(=O)c1ccc2c(c1)nc(Nc1nc3cc(OC(F)(F)F)ccc3[nH]1)n2CCOC` [Example 76, N,1-bis(2-methoxyethyl)-2-((5-(trifluoromethoxy)-1H-benzo[d]imidazol-2-yl)amino)-1H-benzo[d]imidazole-5-carboxamide], the EC50 worked out at 2.7 µM. Consider `COCCn1c(Nc2nc3ccc(OC(F)(F)F)cc3o2)nc2cc(C(=O)O)ccc21` [Example 77, 1-(2-methoxyethyl)-2-((6-(trifluoromethoxy)benzo[d]oxazol-2-yl)amino)-1H-benzo[d]imidazole-5-carboxylic acid], for which the EC50 turned out to be 4.1 µM. `COCCNC(=O)c1ccc2c(c1)nc(Nc1nc3ccc(OC(F)(F)F)cc3o1)n2CCOC` [Example 78, N,1-bis(2-methoxyethyl)-2-((6-(trifluoromethoxy)benzo[d]oxazol-2-yl)amino)-1H-benzo[d]imidazole-5-carboxamide]: the half-maximal effective concentration (EC50) amounted to 2.2 µM.

On to `COCCNC(=O)c1ccc2c(c1)nc(Nc1nc3ccc(OC(F)(F)F)cc3o1)n2C1CCOCC1` [Example 80, N-(2-methoxyethyl)-1-(tetrahydro-2H-pyran-4-yl)-2-((6-(trifluoromethoxy)benzo[d]oxazol-2-yl)amino)-1H-benzo[d]imidazole-5-carboxamide], for which the EC50 turned out to be 1.9 µM.

For `COCCNC(=O)c1ccc2c(c1)nc(Nc1nc3cc(OC(F)(F)F)ccc3[nH]1)n2C1CCOCC1` [Example 81, N-(2-methoxyethyl)-1-(tetrahydro-2H-pyran-4-yl)-2-((5-(trifluoromethoxy)-1H-benzo[d]imidazol-2-yl)amino)-1H-benzo[d]imidazole-5-carboxamide], the EC50 stood at 2.3 µM. Consider `Cn1c(Nc2nc3cc(Cl)ccc3[nH]2)nc2cc(C(=O)O)ccc21` [Example 82, 2-((5-chloro-1H-benzo[d]imidazol-2-yl)amino)-1-methyl-1H-benzo[d]imidazole-5-carboxylic acid], for which the EC50 came to 2.4 µM.
